# Results reported in patent US7923004B2 (priority 2006, dated 2011).
# Tests used:
# Assay type in all cases: cell-based
# [1] = Cell Titer-Glo Cell Viability Assay, genotype 1a cells; details: human, En5-3/Htat2ANeo (HCV genotype 1a replicon) cells, HCV-1a assays, read-out: Cytotoxicity* (CC50)
# Protocol: (§1) Cell Seeding and Compound Treatment: Huh-Luc-Neo (Genotype 1b) or En5-3/Htat2ANeo (Genotype 1a) cells are seeded at 5000-7000/well in an opaque-walled 96 plate with Growth Medium (DMEM phenol red free+PS+2 mM glutamine; 100 ul/well). The compounds to be tested for inhibition of cell viability are added to the experimental wells so as to generate a dose response curve (8-9 concentrations, 10 μl/well at 10× assay concentration) and the cells are then incubated (5% CO2, 37° C.) for 72 h.
# (§2) Reagent Preparation and Assay: After completion of the incubation period the cell viability measurements are made using the Cell Titre Glo Assay (Promega) according to the manufacturer's recommended protocol. Briefly, the CellTiter-Glo Buffer is thawed and equilibrated to room temperature prior to use. The lyophilized CellTiter-Glo Substrate is also equilibrated to room temperature prior to use. 10 ml of CellTiter-Glo Buffer is then transferred to 1 vial of CellTiter-Glo Substrate and mixed gently with a Vortex. 100 μl of CellTiter-Glo Assay reagent (CellTiter-Glo Buffer+CellTiter-Glo Substrate Mixture) is added to each well. The well contents are mixed for 5 min. on an orbital shaker at room temperature to induce cell lysis and the luminescence is then measured using a luminometer.
# [2] = system: HCV genotype 1a replicon (En5-3/Htat2ANeo cells); assay: HCV-1a Replicon RNA (Taqman) inhibition assay; details: Hepatitis C virus, 72 h
# [3] = Cell Titer-Glo Cell Viability Assay, genotype 1b cells; details: human, Huh-Luc-Neo (HCV genotype 1b replicon) cells, HCV genotype 1b assays, read-out: Cytotoxicity* (CC50)
# Protocol: as §1, §2
# [4] = system: HCV genotype 1b replicon (Huh-Luc-Neo cells); assay: HCV Replicon RNA (Taqman) Assay, genotype 1b; details: Hepatitis C virus, 72 h, read-out: HCV-1b Replicon Inhibition*, Taqman (EC50)
# [5] = system: HCV genotype 1b replicon (Huh-Luc-Neo cells); assay: HCV Replicon Luciferase Assay; details: Hepatitis C virus, 72 h, read-out: HCV-1b Replicon Inhibition*, Luciferase (EC50)
# [6] = Huh-Luc-Neo cells, genotype 1b, HCV RNA
Compound,CC50 at 72 h [1] [nM],EC50 [2] [nM],CC50 at 72 h [3] [nM],"EC50 [4, 6] [nM]","EC50 ([5]; Huh-Luc-Neo cells, genotype 1b) [nM]",other results
Cn1nccc1C(=O)N[C@@H](C(=O)N1CCOC[C@H]1C(=O)Nc1ccc(C#Cc2cn(CCC#N)nc2-c2cc(Cl)ccc2O)cc1)c1ccccc1 [Compound 1],> 33300,< 1000,,,,
N#CCCn1cc(C#Cc2ccc(NC(=O)[C@@H]3COCCN3C(=O)[C@H](NC(=O)c3cnccn3)c3ccccc3)cc2)c(-c2cc(Cl)ccc2O)n1 [Compound 2],> 33300,< 1000,,,,
N#CCCn1cc(C#Cc2ccc(NC(=O)[C@@H]3COCCN3C(=O)[C@H](NC(=O)NC3CC3)c3ccccc3)cc2)c(-c2cc(Cl)ccc2O)n1 [Compound 3],> 33300,< 1000,,,,
N#CCCn1cc(C#Cc2ccc(NC(=O)[C@@H]3COCCN3C(=O)[C@H](NC(=O)N3CCOCC3)c3ccccc3)cc2)c(-c2cc(Cl)ccc2O)n1 [Compound 4],> 33300,< 1000,,,,
Cn1cc(C#Cc2ccc(NC(=O)[C@@H]3COCCN3C(=O)[C@H](NC(=O)c3ccc(C#N)cc3)c3ccccc3)cc2)c(-c2cc(Cl)ccc2O)n1 [Compound 5],> 33300,< 1000,,,,
CC(C)n1cc(C#Cc2ccc(NC(=O)[C@@H]3COCCN3C(=O)[C@H](NC(=O)c3ccccc3)c3ccccc3)cc2)c(-c2cc(Cl)ccc2O)n1 [Compound 6],> 33300,< 1000,,,,
N#CCCn1cc(C#Cc2ccc(NC(=O)[C@@H]3COCCN3C(=O)[C@H](NC(=O)N3CCC(=O)CC3)c3ccccc3)cc2)c(-c2cc(Cl)ccc2O)n1 [Compound 7],> 33300,< 1000,,,,
C[C@@H]1CN(C(=O)N[C@@H](C(=O)N2CCOC[C@H]2C(=O)Nc2ccc(C#Cc3cn(CCC#N)nc3-c3cc(Cl)ccc3O)cc2)c2ccccc2)C[C@H](C)O1 [Compound 8],> 33300,< 1000,,,,
Cn1cc(C#Cc2ccc(NC(=O)[C@@H]3COCCN3C(=O)[C@H](NC(=O)c3cccs3)c3ccccc3)cc2)c(-c2cc(Cl)ccc2O)n1 [Compound 9],> 33300,< 1000,,,,
Cn1cc(C#Cc2ccc(NC(=O)[C@@H]3COCCN3C(=O)[C@H](NC(=O)N3CCC3)c3ccccc3)cc2)c(-c2cc(Cl)ccc2O)n1 [Compound 10],> 33300,< 1000,,,,
CC(C)n1cc(C#Cc2ccc(NC(=O)[C@@H]3COCCN3C(=O)[C@H](NC(=O)NC(C)(C)C)c3ccccc3)cc2)c(-c2cc(Cl)ccc2O)n1 [Compound 11],> 33300,< 1000,,,,
COCC(=O)N[C@@H](C(=O)N1CCOC[C@H]1C(=O)Nc1ccc(C#Cc2cn(C)nc2-c2cc(Cl)ccc2O)cc1)c1ccccc1 [Compound 12],> 33300,< 1000,,,,
N#CCCn1cc(C#Cc2ccc(NC(=O)[C@@H]3COCCN3C(=O)[C@H](NC(=O)c3ccccc3)c3ccccc3)cc2)c(-c2cc(Cl)ccc2O)n1 [Compound 13],> 33300,< 1000,,,,
COC(=O)C1CCCN1C(=O)N[C@@H](C(=O)N1CCOC[C@H]1C(=O)Nc1ccc(C#Cc2cn(CCC#N)nc2-c2cc(Cl)ccc2O)cc1)c1ccccc1 (stereo partly shown) [Compound 14],> 33300,< 1000,,,,
N#CCCn1cc(C#Cc2ccc(NC(=O)[C@@H]3COCCN3C(=O)[C@H](NC(=O)N3CCC3)c3ccccc3)cc2)c(-c2cc(Cl)ccc2O)n1 [Compound 15],> 33300,< 1000,,,,
CN1CCN(C(=O)N[C@@H](C(=O)N2CCOC[C@H]2C(=O)Nc2ccc(C#Cc3cn(CCC#N)nc3-c3cc(Cl)ccc3O)cc2)c2ccccc2)CC1 [Compound 16],1000 to 10000,< 1000,,,,
Cc1ccc(O)c(-c2nn(C)cc2C#Cc2ccc(NC(=O)[C@H]3CS(=O)(=O)CCN3C(=O)[C@H](NC(=O)OC(C)(C)C)c3ccccc3)cc2)c1 [Compound 46 (Table 1)],,,> 100000,< 1000,< 1000,
Cn1cc(C#Cc2ccc(NC(=O)[C@@H]3COCCN3C(=O)[C@H](NS(=O)(=O)C3CC3)c3ccccc3)cc2)c(-c2cc(Cl)ccc2O)n1 [Compound 55],,,10000 to 100000,< 1000,< 1000,

Compound,CC50 at 72 h [1] [nM],EC50 [2] [nM],CC50 at 72 h [3] [nM],"EC50 [4, 6] [nM]","EC50 ([5]; Huh-Luc-Neo cells, genotype 1b) [nM]",other results
Cc1ccc(O)c(-c2nn(C)cc2C#Cc2ccc(NC(=O)C3CCCCN3C(=O)C(c3ccccc3)N(C)C(=O)OC(C)(C)C)cc2)c1 (stereo not shown) [Compound 56],,,10000 to 100000,1000 to 10000,1000 to 10000,
Cc1ccc(OCC(N)=O)c(-c2nn(C)cc2C#Cc2ccc(NC(=O)C3CCCCN3C(=O)[C@H](Cc3ccccc3)NC(=O)OC(C)(C)C)cc2)c1 (stereo partly shown) [Compound 58],,,10000 to 100000,,,EC50 [4]: > 100000 nM; EC50 [5]: 1000 to 10000 nM
CC(=O)Oc1ccc(C)cc1-c1nn(C)cc1C#Cc1ccc(NC(=O)C2CCCCN2S(=O)(=O)c2cccs2)cc1 (stereo not shown) [Compound 63],,,> 100000,1000 to 10000,1000 to 10000,
Cc1ccc(O)c(-c2nn(C)cc2C#Cc2ccc(NC(=O)[C@@H]3CCCCN3C(=O)[C@@H](NC(=O)OC(C)(C)C)c3ccccc3)cc2)c1 [Example 17],,,> 100000,< 1000,< 1000,
Cn1cc(C#Cc2ccc(NC(=O)[C@@H]3COCCN3C(=O)[C@H](NC(=O)N3CCOCC3)c3ccccc3)cc2)c(-c2cc(Cl)ccc2O)n1 [Example 17],> 33300,,,,,EC50 ([2]; GETYPE1A): < 1000 nM
CN(C)CCn1cc(C#Cc2ccc(NC(=O)[C@@H]3COCCN3C(=O)[C@H](NC(=O)NOC(C)(C)C)c3ccccc3)cc2)c(-c2cc(Cl)ccc2O)n1 [Example 18],1000 to 10000,1000 to 10000,,,,
Cc1ccc(O)c(-c2nn(C)cc2C#Cc2ccc(NC(=O)C3CCCCN3C(=O)[C@H](Cc3ccccc3)NC(=O)NC(C)(C)C)cc2)c1 (stereo partly shown) [Example 18],,,> 100000,< 1000,< 1000,
Cc1ccc(O)c(-c2nn(C)cc2C#Cc2ccc(NC(=O)C3CCCCN3C(=O)[C@H](Cc3ccccc3)N(C)C(=O)OC(C)(C)C)cc2)c1 (stereo partly shown) [Example 19],,,10000 to 100000,< 1000,< 1000,
Cc1ccc(O)c(-c2nn(C)cc2C#Cc2ccc(NC(=O)[C@@H]3COCCN3C(=O)[C@H](NC(=O)N3CCOCC3)c3ccccc3)cc2)c1 [Example 19],> 33300,< 1000,,,,
Cn1cc(C#Cc2ccc(NC(=O)[C@H]3CCCCN3C(=O)C(NC(=O)OC(C)(C)C)c3ccccc3)cc2)c(-c2cc(Br)ccc2O)n1 (stereo partly shown) [Example 20],,,10000 to 100000,< 1000,< 1000,
N#CCCn1cc(C#Cc2ccc(NC(=O)[C@@H]3COCCN3C(=O)[C@H](NC(=O)N3CCNC(=O)C3)c3ccccc3)cc2)c(-c2cc(Cl)ccc2O)n1 [Example 20],> 33300,< 1000,,,,
Cc1ccc(O)c(-c2nn(C)cc2C#Cc2ccc(NC(=O)C3CCCCN3C(=O)[C@]3(NC(=O)OC(C)(C)C)C[C@@H]3c3ccccc3)cc2)c1 (stereo partly shown) [Example 21],,,10000 to 100000,< 1000,< 1000,
Cn1cc(C#Cc2ccc(NC(=O)[C@@H]3COCCN3C(=O)[C@H](NC(=O)OC(C)(C)C)c3ccccc3)cc2)c(-c2cc(F)ccc2O)n1 [Example 47],,,> 100000,< 1000,< 1000,
Cn1cc(C#Cc2ccc(NC(=O)[C@@H]3CCCCN3C(=O)[C@H](NC(=O)OC(C)(C)C)c3cccs3)cc2)c(-c2cc(Br)ccc2O)n1 [Example 48],,,> 100000,< 1000,< 1000,
Cn1cc(C#Cc2ccc(NC(=O)[C@@H]3CCCCN3C(=O)[C@@H](NC(=O)OC(C)(C)C)c3ccsc3)cc2)c(-c2cc(Br)ccc2O)n1 [Example 49],,,10000 to 100000,< 1000,< 1000,
Cc1ccc(O)c(-c2nn(C)cc2C#Cc2ccc(NC(=O)[C@@H]3CCCCN3C(=O)[C@H](NC(=O)OC(C)(C)C)c3cccs3)cc2)c1 [Example 50],,,> 100000,< 1000,< 1000,
Cn1cc(C#Cc2ccc(NC(=O)[C@@H]3COCCN3C(=O)[C@H](NC(=O)OC(C)(C)C)c3ccccc3)cc2)c(-c2cc(Cl)ccc2O)n1 [Example 51],,,10000 to 100000,< 1000,< 1000,
